Reference: the NIST ThermoML archive (doi:10.1021/je101012n)
Numbers after ± are expanded uncertainties.

Assay: mn = molality of the nth substance listed, in mol/kg
Conditions: 101 kPa, Liquid, Alternating current cell with electrodes

[Cl-].[Na+] [sodium chloride] + O
electrical conductivity [S/m]
Conditions | 278.15 K | 283.15 K | 298.15 K | 308.15 K | 318.15 K | 343.15 K | 363.15 K
m1 = 0.000104 | 0.0008271 ± 3.3e-06 | 0.0009431 ± 3.8e-06 | 0.001295 ± 5e-06 | 0.00161 ± 6e-06 | 0.001893 ± 8e-06 | 0.002693 ± 1.1e-05 | 0.003358 ± 1.3e-05
m1 = 0.00099 | 0.007531 ± 3e-05 | 0.008619 ± 3.4e-05 | 0.01224 ± 5e-05 | 0.01478 ± 6e-05 | 0.01747 ± 7e-05 | 0.02497 ± 0.0001 | 0.03126 ± 0.00013
m1 = 0.01 | 0.07349 ± 0.00029 | 0.08395 ± 0.00034 | 0.1185 ± 0.0005 | 0.1425 ± 0.0006 | 0.1694 ± 0.0007 | 0.2418 ± 0.001 | 0.3029 ± 0.0012
m1 = 0.1 | 0.6588 ± 0.0026 | 0.7505 ± 0.003 | 1.06 ± 0.0042 | 1.277 ± 0.0051 | 1.505 ± 0.006 | 2.148 ± 0.0086 | 2.691 ± 0.011
m1 = 0.5 | 2.948 ± 0.012 | 3.348 ± 0.013 | 4.652 ± 0.019 | 5.625 ± 0.022 | 6.624 ± 0.026 | 9.35 ± 0.037 | 11.68 ± 0.047
m1 = 1 | 5.444 ± 0.022 | 6.123 ± 0.025 | 8.43 ± 0.034 | 10.19 ± 0.041 | 11.94 ± 0.048 | 16.8 ± 0.067 | 20.94 ± 0.084

O=C([O-])O.[Na+] [sodium bicarbonate] + O
electrical conductivity [S/m]
Conditions | 278.15 K | 283.15 K | 298.15 K | 308.15 K | 318.15 K | 343.15 K | 363.15 K
m1 = 0.00121 | 0.006911 ± 2.8e-05 | 0.008034 ± 3.2e-05 | 0.01162 ± 5e-05 | 0.01437 ± 5.7e-05 | 0.01703 ± 7e-05 | 0.02506 ± 0.0001 | 0.03284 ± 0.00013
m1 = 0.01187 | 0.06467 ± 0.00026 | 0.07485 ± 0.0003 | 0.1086 ± 0.0004 | 0.1346 ± 0.0005 | 0.1589 ± 0.0006 | 0.234 ± 0.0009 | 0.3056 ± 0.0012
m1 = 0.1223 | 0.5728 ± 0.0023 | 0.6641 ± 0.0027 | 0.9598 ± 0.0038 | 1.177 ± 0.0047 | 1.395 ± 0.0056 | 2.044 ± 0.0082 | 2.457 ± 0.0098
m1 = 0.7226 | 2.634 ± 0.011 | 3.055 ± 0.012 | 4.383 ± 0.018 | 5.346 ± 0.021 | 6.41 ± 0.026 | 9.404 ± 0.038 | 11.39 ± 0.046

[F-].[Na+] [sodium fluoride] + O
electrical conductivity [S/m]
Conditions | 278.15 K | 283.15 K | 298.15 K | 308.15 K | 318.15 K | 343.15 K | 363.15 K
m1 = 8.8e-05 | 0.0005802 ± 2.3e-06 | 0.0006955 ± 2.8e-06 | 0.0009523 ± 3.8e-06 | 0.00122 ± 5e-06 | 0.001433 ± 6e-06 | 0.002014 ± 8e-06 | 0.00252 ± 1e-05
m1 = 0.00092 | 0.006016 ± 2.4e-05 | 0.006909 ± 2.8e-05 | 0.009683 ± 3.9e-05 | 0.01152 ± 5e-05 | 0.01398 ± 6e-05 | 0.02009 ± 8e-05 | 0.02474 ± 0.0001
m1 = 0.00878 | 0.05214 ± 0.00021 | 0.05994 ± 0.00024 | 0.08551 ± 0.00034 | 0.1038 ± 0.0004 | 0.1234 ± 0.0005 | 0.1798 ± 0.0007 | 0.227 ± 0.0009
m1 = 0.0906 | 0.4638 ± 0.0019 | 0.5338 ± 0.0021 | 0.7669 ± 0.0031 | 0.9341 ± 0.0037 | 1.112 ± 0.0044 | 1.621 ± 0.0065 | 2.042 ± 0.0082
m1 = 0.4176 | 1.917 ± 0.0077 | 2.201 ± 0.0088 | 3.151 ± 0.013 | 3.824 ± 0.015 | 4.547 ± 0.018 | 6.57 ± 0.026 | 8.137 ± 0.033
m1 = 0.8404 | 3.432 ± 0.014 | 3.915 ± 0.016 | 5.579 ± 0.022 | 6.791 ± 0.027 | 7.478 ± 0.03 | 11.37 ± 0.045 | 14.54 ± 0.058

O=S(=O)(O)O [sulfuric acid] + O
electrical conductivity [S/m]
Conditions | 278.15 K | 283.15 K | 298.15 K | 308.15 K | 318.15 K | 343.15 K | 363.15 K
m1 = 9.4e-05 | 0.005493 ± 2.2e-05 | 0.006105 ± 2.4e-05 | 0.007827 ± 3.1e-05 | 0.008931 ± 3.6e-05 | 0.009949 ± 4e-05 | 0.01221 ± 5e-05 | 0.01367 ± 5e-05
m1 = 0.000936 | 0.05201 ± 0.00021 | 0.05749 ± 0.00023 | 0.07292 ± 0.00029 | 0.08174 ± 0.00033 | 0.09001 ± 0.00036 | 0.1026 ± 0.0004 | 0.1058 ± 0.00042
m1 = 0.00944 | 0.4321 ± 0.0017 | 0.4729 ± 0.0019 | 0.5772 ± 0.0023 | 0.6319 ± 0.0025 | 0.6759 ± 0.0027 | 0.7372 ± 0.0029 | 0.7698 ± 0.0031
m1 = 0.09223 | 3.12 ± 0.013 | 3.444 ± 0.014 | 4.13 ± 0.017 | 4.525 ± 0.018 | 4.885 ± 0.019 | 5.575 ± 0.022 | 6.159 ± 0.025
m1 = 0.4664 | 13.46 ± 0.054 | 14.5 ± 0.058 | 17.37 ± 0.07 | 19.34 ± 0.077 | 20.96 ± 0.084 | 25.62 ± 0.1 | 28.05 ± 0.11

O=[N+]([O-])[O-].O=[N+]([O-])[O-].[Cu+2] [copper dinitrate] + O
electrical conductivity [S/m]
Conditions | 278.1 K | 283.1 K | 298.15 K | 308.15 K | 318.15 K | 343.15 K | 363.15 K
m1 = 0.0001 | 0.01101 ± 4e-05 | 0.01227 ± 5e-05 | – | – | – | 0.02684 ± 0.00011 | 0.0318 ± 0.0001
m1 = 0.0011 | 0.02486 ± 0.0001 | 0.02823 ± 0.00011 | 0.0388 ± 0.0002 | 0.04633 ± 0.00019 | 0.05303 ± 0.00021 | 0.07303 ± 0.00029 | 0.08992 ± 0.00036
m1 = 0.01032 | 0.1433 ± 0.0006 | 0.1641 ± 0.0007 | 0.2308 ± 0.0009 | 0.2795 ± 0.0011 | 0.3256 ± 0.0013 | 0.4628 ± 0.0019 | 0.5792 ± 0.0023
m1 = 0.1108 | 1.207 ± 0.0048 | 1.382 ± 0.0055 | 1.935 ± 0.0077 | 2.333 ± 0.0093 | 2.746 ± 0.011 | 3.918 ± 0.016 | 4.838 ± 0.019
m1 = 0.3459 | 3.219 ± 0.013 | 3.68 ± 0.015 | 5.093 ± 0.02 | 6.092 ± 0.024 | 7.235 ± 0.029 | 10.34 ± 0.041 | 12.57 ± 0.05
